Experimental data reported in patent US7335674B2, “Benzothiazole-4,7-diones and benzoxazole-4,7-diones with substituents in position 5 or 6 and method for production thereof” (Societe de Conseils de Recherches et d'Applications …, priority 2003, dated 2008).

Experiments:
[1] = test system: Mia-Paca2 (human pancreas cancer cells); assay: Antiproliferative activity, WST1 colorimetric test, Mia-PaCa2; assay type: cell-based; details: MIA PaCa-2, Mia-Paca2, treated 96 hours, up to 10 μM, read-out: IC50 on the cell proliferation of the Mia-Paca2 lines
Description: (§1) iii) Characterization of the Antiproliferative Activity:
(§2) By way of example, the effect of a treatment on two human cell lines Mia-Paca2 and DU145 by the compounds of the examples described previously will be studied. The cell lines DU145 (human prostate cancer cells) and Mia-PaCa2 (human pancreas cancer cells) were acquired from the American Tissue Culture Collection (Rockville, Md., USA). The cells placed in 80 μl of Dulbecco's Modified Eagle's medium (Gibco-Brl, Cergy-Pontoise, France) completed with 10% foetal calf serum inactivated by heating (Gibco-Brl, Cergy-Pontoise, France), 50,000 units/l of penicillin and 50 mg/l of streptomycin (Gibco-Brl, 10378-057, Cergy-Pontoise, France), and 2 mM of glutamine (Gibco-Brl, Cergy-Pontoise, France) were seeded on a 96-well plate on day 0. The cells were treated on day 1 for 96 hours with increasing concentrations of each of the compounds to be tested up to 10 μM. At the end of this period, quantification of cell proliferation is evaluated by a colorimetric test based on the cleavage of the tetrazolium salt WST1 by the mitochondrial dehydrogenases in viable cells leading to the formation of formazan (Boehringer Mannheim, Meylan, France). These tests are carried out in duplicate with 8 determinations per concentration tested. For each compound to be tested, the values included in the linear part of the sigmoid were retained for a linear regression analysis and used to estimate the inhibitory concentration IC50. The products are solubilized in dimethylsulphoxide (DMSO) at 10^−2 M and finally used in culture with 0.1% DMSO.

[2] = test system: DU145 (human prostate cancer cells); assay: Antiproliferative activity, WST1 colorimetric test, DU145; assay type: cell-based; details: DU-145, treated 96 hours, up to 10 μM, read-out: IC50 on the cell proliferation of the DU-145 lines
Description: as §1, §2

SMILES | IC50 [1] [µM] | IC50 [2] [µM] | melting point [°C]
CN(C)CCNC1=CC(=O)c2sc(-c3c(F)cccc3F)nc2C1=O [Example 1, 2-(2,6-difluorophenyl)-5-{[2-(dimethylamino)ethyl]amino}-1,3-benzothiazole-4,7-dione] | ≤ 10 | ≤ 10 | –
CN(C)CCNC1=CC(=O)c2sc(-c3cc(Cl)sc3Cl)nc2C1=O [Example 2, 2-(2,5-dichlorothien-3-yl)-5-{1-[2-(dimethylamino)ethyl]amino}-1,3-benzothiazole-4,7-dione] | ≤ 10 | ≤ 10 | –
O=C1C(NCCN2CCCC2)=CC(=O)c2sc(-c3cc(Cl)sc3Cl)nc21 [Example 3, 2-(2,5-dichlorothien-3-yl)-5-[(2-pyrrolidin-1-ylethyl)amino]-1,3-benzothiazole-4,7-dione] | ≤ 10 | ≤ 10 | –
CN(C)CCNC1=CC(=O)c2sc(-c3ccc(F)cc3)nc2C1=O [Example 4, 5-{[2-(dimethylamino)ethyl]amino}-2-(4-fluorophenyl)-1,3-benzothiazole4,7-dione] | ≤ 10 | ≤ 10 | –
O=C1C(NCCN2CCCC2)=CC(=O)c2sc(-c3ccc(F)cc3)nc21 [Example 5, 2-(4-fluorophenyl)-5-[(2-pyrrolidin-1-ylethyl)amino]-1,3-benzothiazole-4,7-dione] | ≤ 10 | ≤ 10 | –
CN(C)CCNC1=CC(=O)c2sc(-c3c(F)cccc3Cl)nc2C1=O [Example 6, 2-(2-chloro-6-fluorophenyl)-5-{[2-(dimethylamino)ethyl]amino}-1,3-benzothiazole4,7-dione] | ≤ 10 | ≤ 10 | –
O=C1C(NCCN2CCCC2)=CC(=O)c2sc(-c3c(F)cccc3Cl)nc21 [Example 7, 2-(2-chloro-6-fluorophenyl)-5-[(2-pyrrolidin-1-ylethyl)amino]-1,3-benzothiazole-4,7-dione] | ≤ 10 | ≤ 10 | –
CN(C)CCNC1=CC(=O)c2nc(-c3ccc(F)cc3)sc2C1=O [Example 8, 6-{[2-(dimethylamino)ethyl]amino}-2-(4-fluorophenyl)-1,3-benzothiazole4,7-dione] | ≤ 10 | ≤ 10 | 246 to 247
CN(C)CCNC1=CC(=O)c2nc(-c3cccc4ccccc34)sc2C1=O [Example 9, 6-{[2-(dimethylamino)ethyl]amino}-2-(1-naphthyl)-1,3-benzothiazole-4,7-dione] | ≤ 10 | ≤ 10 | 172 to 173
CN(C)CCNC1=CC(=O)c2nc(-c3ccc(-c4ccccc4)cc3)sc2C1=O [Example 10, 2-(1,1′-biphenyl-4-yl)-6-{[2-(dimethylamino)ethyl]amino}-1,3-benzothiazole-4,7-dione] | ≤ 10 | ≤ 10 | 194 to 195
CCCCc1ccc(-c2nc3c(s2)C(=O)C(NCCN(C)C)=CC3=O)cc1 [Example 11, 2-(4-butylphenyl)-6-{[2-(dimethylamino)ethyl]amino}-1,3-benzothiazole-4,7-dione] | ≤ 10 | ≤ 10 | 126 to 127
CN(C)CCNC1=CC(=O)c2nc(-c3c(F)cccc3Cl)sc2C1=O [Example 12, 2-(2-chloro-6fluorophenyl)-6-{[2-(dimethylamino)ethyl]amino}-1,3-benzothiazole-4,7-dione] | ≤ 10 | ≤ 10 | –
CN(C)CCNC1=CC(=O)c2nc(-c3ccc4ccccc4c3)sc2C1=O [Example 13, 6-{[2-(dimethylamino)ethyl]amino}-2-(2-naphthyl)-1,3-benzothiazole-4,7-dione] | ≤ 10 | ≤ 10 | 167 to 168
CN(C)CCNC1=CC(=O)c2nc(-c3cc(F)ccc3F)sc2C1=O [Example 14, 2-(2,5-difluorophenyl)-6-{[2-(dimethylamino)ethyl]amino}-1,3-benzothiazole-4,7-dione] | ≤ 10 | ≤ 10 | –
CN(C)CCNC1=CC(=O)c2oc(-c3cc(F)ccc3F)nc2C1=O [Example 15, 2-(2,5-difluorophenyl)-5-{[2-(dimethylamino)ethyl]amino}-1,3-benzoxazole-4,7-dione] | ≤ 10 | ≤ 10 | 181 to 182
CN(C)CCNC1=CC(=O)c2oc(-c3ccccc3Br)nc2C1=O [Example 16, 2-(2-bromophenyl)-5-{[2-(dimethylamino)ethyl]amino}-1,3-benzoxazole4,7-dione] | ≤ 10 | ≤ 10 | 153 to 154

SMILES | IC50 [1] [µM] | IC50 [2] [µM] | melting point [°C]
CN(C)CCNC1=CC(=O)c2oc(-c3cccc(Br)c3)nc2C1=O [Example 17, 2-(3-bromophenyl)-5-{[2-(dimethylamino)ethyl]amino}-1,3-benzoxazole-4,7-dione] | ≤ 10 | ≤ 10 | 187 to 188
CN(C)CCNC1=CC(=O)c2oc(-c3ccc(F)cc3)nc2C1=O [Example 18, 5-{[2-(dimethylamino)ethyl]amino}-2-(4-fluorophenyl)-1,3-benzoxazole-4,7-dione] | ≤ 10 | ≤ 10 | 181 to 182
CN(C)CCNC1=CC(=O)c2oc(-c3cc(F)cc(F)c3)nc2C1=O [Example 19, 2-(3,5-difluorophenyl)-5-{[2-(dimethylamino)ethyl]amino}-1,3-benzoxazole-4,7-dione] | ≤ 10 | ≤ 10 | 187 to 188
CN(C)CCNC1=CC(=O)c2oc(-c3cccc(F)c3F)nc2C1=O [Example 20, 2-(2,3-difluorophenyl)-5-{[2-(dimethylamino)ethyl]amino}-1,3-benzoxazole-4,7-dione] | ≤ 10 | ≤ 10 | 178 to 179
CN(C)CCNC1=CC(=O)c2oc(-c3cc(F)c(F)c(F)c3)nc2C1=O [Example 21, 5-{[2-(dimethylamino)ethyl]amino}-2-(3,4,5-trifluorophenyl)-1,3-benzoxazole4,7-dione] | ≤ 10 | ≤ 10 | –
CCc1ccc(-c2nc3c(o2)C(=O)C=C(NCCN(C)C)C3=O)cc1 [Example 22, 5-{[2-(dimethylamino)ethyl]amino}-2-(4-ethylphenyl)-1,3-benzoxazole4,7-dione] | ≤ 10 | ≤ 10 | 169 to 170
CN(C)CCNC1=CC(=O)c2oc(Cc3ccccc3)nc2C1=O [Example 23, 2-benzyl-5-{[2-(dimethylamino)ethyl]amino}-1,3-benzoxazole-4,7-dione] | ≤ 10 | ≤ 10 | 135 to 136
O=C1C(NCCN2CCCC2)=CC(=O)c2oc(-c3cccc(Br)c3)nc21 [Example 24, 2-(3-bromophenyl)-5-[(2-pyrrolidin-1-ylethyl)amino]1,3-benzoxazole4,7-dione] | ≤ 10 | ≤ 10 | 169 to 170
O=C1C(NCCN2CCCC2)=CC(=O)c2oc(-c3cc(F)cc(F)c3)nc21 [Example 25, 2-(3,5-difluorophenyl)-5-[(2-pyrrolidin-1-ylethyl)amino]-1,3-benzoxazole-4,7-dione] | ≤ 10 | ≤ 10 | 182 to 183
O=C1C(NCCN2CCCC2)=CC(=O)c2oc(-c3cc(F)c(F)c(F)c3)nc21 [Example 26, 5-[(2-pyrrolidin-1-ylethyl)amino]-2-(3,4,5-trifluorophenyl)-1,3-benzoxazole-4,7-dione] | ≤ 10 | ≤ 10 | 193 to 194
CN(C)CCNC1=CC(=O)c2nc(-c3cc(F)ccc3F)oc2C1=O [Example 27, 2-(2,5-difluorophenyl)-6-{[2-(dimethylamino)ethyl]amino}-1,3-benzoxazole-4,7-dione] | ≤ 10 | ≤ 10 | –
COc1cc(-c2nc3c(o2)C(=O)C(NCCN(C)C)=CC3=O)cc(OC)c1OC [Example 40, 6-{[2-(dimethylamino)ethyl]amino}-2-(3,4,5-trimethoxyphenyl)-1,3-benzoxazole-4,7-dione] | ≤ 10 | ≤ 10 | –
CCc1ccc(-c2nc3c(o2)C(=O)C(NCCN2CCCC2)=CC3=O)cc1 [Example 54, 2-(4-ethylphenyl)-6-[(2-pyrrolidin-1-ylethyl)amino]-1,3-benzoxazole-4,7-dione] | ≤ 10 | ≤ 10 | –
COc1cc(-c2nc3c(o2)C(=O)C(NCCN2CCCC2)=CC3=O)cc(OC)c1OC [Example 56, 6-[(2-pyrrolidin-1-ylethyl)amino]-2-(3,4,5-trimethoxyphenyl)-1,3-benzoxazole-4,7-dione] | ≤ 10 | ≤ 10 | –
CCCCCCc1nc2c(s1)C(=O)C(NCCN(C)C)=CC2=O [Example 60, 6-{[2-(dimethylamino)ethyl]amino}-2-hexyl-1,3-benzothiazole-4,7-dione] | ≤ 10 | ≤ 10 | –
